“And” between values parts separate entries of the source, which are not always exact repeats. Equal values may be shown once. The source made the active and inactive calls. No cut-off for these calls is given here.
Legend:
Canis familiaris [1] = species: Canis familiaris; experiment: Duration for the antiarrhythmic activity was measured; assay type: functional, Canis lupus familiaris, Heart
Canis familiaris [2] = experiment: Activity against harris coronary ligation induced ventricular arrhythmia was measured as percent of final sinus complexes after dose 5 mg/kg iv; assay type: functional, Canis lupus familiaris, Cardiac ventricle
[3] = Toxicity estimated in mouse as LD50 by intravenous administration; assay type: organism-based; settings: in vivo
Canis familiaris [4] = experiment: Activity against ouabain-induced ventricular arrhythmia was measured as percent of sinus rhythm recovery at dose of 5 mg/kg iv; assay type: functional, Canis lupus familiaris, Cardiac ventricle
Canis familiaris [5] = experiment: Activity against harris coronary ligation induced ventricular arrhythmia was measured as percent of initial sinus complexes after dose 25 mg/kg po; assay type: functional, Canis lupus familiaris, Cardiac ventricle
Canis familiaris [6] = experiment: Activity against harris coronary ligation induced ventricular arrhythmia was measured as percent of final sinus complexes after dose 25 mg/kg po; assay type: functional, Canis lupus familiaris, Cardiac ventricle
Canis familiaris [7] = species: Canis familiaris; experiment: Duration for the sinus rhythm recovery was measured; assay type: functional, Canis lupus familiaris
Canis familiaris [8] = experiment: Activity against harris coronary ligation induced ventricular arrhythmia was measured as percent of initial sinus complexes after dose 5 mg/kg iv; assay type: functional, Canis lupus familiaris, Cardiac ventricle
Canis familiaris [9] = experiment: Activity against harris coronary ligation induced ventricular arrhythmia was measured as percent of final sinus complexes after dose 1 mg/kg iv; assay type: functional, Canis lupus familiaris, Cardiac ventricle
Canis familiaris [10] = experiment: Activity against harris coronary ligation induced ventricular arrhythmia was measured as percent of initial sinus complexes after dose 1 mg/kg iv; assay type: functional, Canis lupus familiaris, Cardiac ventricle
Canis familiaris [11] = experiment: Activity against ouabain-induced ventricular arrhythmia was measured as percent of sinus rhythm recovery at dose of 1 mg/kg iv; assay type: functional, Canis lupus familiaris, Cardiac ventricle
Canis familiaris [12] = experiment: Activity against harris coronary ligation induced ventricular arrhythmia was measured as percent of final sinus complexes after dose mg/kg, iv; assay type: functional, Canis lupus familiaris, Cardiac ventricle
Canis familiaris [13] = experiment: Activity against harris coronary ligation induced ventricular arrhythmia was measured as percent of initial sinus complexes after dose 10 mg/kg iv; assay type: functional, Canis lupus familiaris, Cardiac ventricle
Canis familiaris [14] = experiment: Activity against harris coronary ligation induced ventricular arrhythmia was measured as percent of initial sinus complexes after dose mg/kg, iv=12.5; assay type: functional, Canis lupus familiaris, Cardiac ventricle
Canis familiaris [15] = experiment: Activity against harris coronary ligation induced ventricular arrhythmia was measured as percent of initial sinus complexes after dose mg/kg, iv=25; assay type: functional, Canis lupus familiaris, Cardiac ventricle
Canis familiaris [16] = experiment: Activity against ouabain-induced ventricular arrhythmia was measured as percent of sinus rhythm recovery at dose of 10 mg/kg iv; assay type: functional, Canis lupus familiaris, Cardiac ventricle
Canis familiaris [17] = experiment: Activity against harris coronary ligation induced ventricular arrhythmia was measured as percent of final sinus complexes after dose 10 mg/kg iv; assay type: functional, Canis lupus familiaris, Cardiac ventricle
Canis familiaris [18] = experiment: Activity against harris coronary ligation induced ventricular arrhythmia was measured as percent of initial sinus complexes after dose 2.5 mg/kg, iv; assay type: functional, Canis lupus familiaris, Cardiac ventricle
Canis familiaris [19] = experiment: Activity against ouabain-induced ventricular arrhythmia was measured as percent of sinus rhythm recovery at dose of 2 mg/kg iv; assay type: functional, Canis lupus familiaris, Cardiac ventricle
Canis familiaris [20] = experiment: Activity against harris coronary ligation induced ventricular arrhythmia was measured as percent of final sinus complexes after dose 6.25 mg/kg, po; assay type: functional, Canis lupus familiaris, Cardiac ventricle
Canis familiaris [21] = experiment: Activity against harris coronary ligation induced ventricular arrhythmia was measured as percent of initial sinus complexes after dose 12.5 mg/kg, po; assay type: functional, Canis lupus familiaris, Cardiac ventricle
Canis familiaris [22] = experiment: Activity against harris coronary ligation induced ventricular arrhythmia was measured as percent of initial sinus complexes after dose 25 mg/kg, po; assay type: functional, Canis lupus familiaris, Cardiac ventricle
Canis familiaris [23] = experiment: Activity against harris coronary ligation induced ventricular arrhythmia was measured as percent of final sinus complexes after dose 5 mg/kg, iv; assay type: functional, Canis lupus familiaris, Cardiac ventricle
Canis familiaris [24] = experiment: Activity against harris coronary ligation induced ventricular arrhythmia was measured as percent of final sinus complexes after dose 2.5 mg/kg, iv; assay type: functional, Canis lupus familiaris, Cardiac ventricle
Canis familiaris [25] = experiment: Activity against harris coronary ligation induced ventricular arrhythmia was measured as percent of initial sinus complexes after dose 6.25 mg/kg, po; assay type: functional, Canis lupus familiaris, Cardiac ventricle
Canis familiaris [26] = experiment: Activity against harris coronary ligation induced ventricular arrhythmia was measured as percent of initial sinus complexes after dose 5 mg/kg, iv; assay type: functional, Canis lupus familiaris, Cardiac ventricle
Canis familiaris [27] = experiment: (§1) Activity against harris coronary ligation induced ventricular arrhythmia was measured as percent of final sinus complexes after dose 12.5 mg/kg, po; assay type: functional, Canis lupus familiaris, Cardiac ventricle
Canis familiaris [28] = experiment: Activity against harris coronary ligation induced ventricular arrhythmia was measured as percent of final sinus complexes after dose 25 mg/kg, po; assay type: functional, Canis lupus familiaris, Cardiac ventricle
Canis familiaris [29] = experiment: Activity against harris coronary ligation induced ventricular arrhythmia was measured as percent of final sinus complexes after dose 20 mg/kg, po; assay type: functional, Canis lupus familiaris, Cardiac ventricle
Canis familiaris [30] = experiment: Activity against harris coronary ligation induced ventricular arrhythmia was measured as percent of initial sinus complexes after dose 2 mg/kg, iv; assay type: functional, Canis lupus familiaris, Cardiac ventricle
Canis familiaris [31] = experiment: Activity against harris coronary ligation induced ventricular arrhythmia was measured as percent of initial sinus complexes after dose 2 mg/kg po; assay type: functional, Canis lupus familiaris, Cardiac ventricle
Canis familiaris [32] = experiment: Activity against harris coronary ligation induced ventricular arrhythmia was measured as percent of final sinus complexes after dose 2 mg/kg, po; assay type: functional, Canis lupus familiaris, Cardiac ventricle
Canis familiaris [33] = experiment: as §1; assay type: functional, Canis lupus familiaris, Cardiac ventricle; remark: listed apart in the source
Canis familiaris [34] = experiment: Activity against harris coronary ligation induced ventricaulr arrhythmia was measured as percent of initial sinus complexes after dose 12.5 mg/kg po; assay type: functional, Canis lupus familiaris
Canis familiaris [35] = experiment: Activity against harris coronary ligation induced ventricular arrhythmia was measured as percent of final sinus complexes after dose 2 mg/kg iv; assay type: functional, Canis lupus familiaris, Cardiac ventricle
Canis familiaris [36] = experiment: Activity against ouabain-induced ventricular arrhythmia was measured as percent of sinus rhythm recovery at dose of 8 mg/kg iv; assay type: functional, Canis lupus familiaris, Cardiac ventricle
Canis familiaris [37] = experiment: Activity against harris coronary ligation induced ventricular arrhythmia was measured as percent of initial sinus complexes after dose 10 mg/kg, iv; assay type: functional, Canis lupus familiaris, Cardiac ventricle
Canis familiaris [38] = experiment: Activity against harris coronary ligation induced ventricular arrhythmia was measured as percent of final sinus complexes after dose 10 mg/kg, iv; assay type: functional, Canis lupus familiaris, Cardiac ventricle
Canis familiaris [39] = experiment: Activity against harris coronary ligation induced ventricular arrhythmia was measured as percent of initial sinus complexes after dose mg/kg, iv=6; Inactive; assay type: functional, organism-based; settings: Canis lupus familiaris; Cardiac ventricle
Canis familiaris [40] = experiment: Activity against ouabain-induced ventricular arrhythmia was measured as percent of sinus rhythm recovery at dose of 2.5 mg/kg iv; assay type: functional, Canis lupus familiaris, Cardiac ventricle
[41] = Toxicity was estimated in mouse as LD50 by intravenous administration; LD50 = 200(30%); assay type: organism-based; settings: in vivo
Canis familiaris [42] = experiment: Activity against harris coronary ligation induced ventricular arrhythmia was measured as percent of final sinus complexes after dose 2 mg/kg, iv; assay type: functional, Canis lupus familiaris, Cardiac ventricle
Canis familiaris [43] = species: Canis familiaris; experiment: Duration for the antiarrhythmic activity was measured; 10-60; assay type: functional, Canis lupus familiaris, Heart
Canis familiaris [44] = experiment: Activity against harris coronary ligation induced ventricular arrhythmia was measured as percent of initial sinus complexes after dose 2 mg/kg iv; assay type: organism-based, Canis lupus familiaris, Cardiac ventricle; set-up: dose 2 mg/kg, route intravenous; settings: dog, in vivo
Canis familiaris [45] = experiment: Activity against ouabain-induced ventricular arrhythmia was measured as percent of sinus rhythm recovery at the dose of 2 mg/kg iv; assay type: functional, Canis lupus familiaris, Cardiac ventricle
[46] = Toxicity was estimated in mouse as LD50 by intravenous administration; LD50=1000 (40%); assay type: organism-based; settings: in vivo
Canis familiaris [47] = experiment: Activity against ouabain-induced ventricular arrhythmia was measured as percent of sinus rhythm recovery at dose of 6 mg/kg iv; assay type: functional, Canis lupus familiaris, Cardiac ventricle
Canis familiaris [48] = experiment: Activity against harris coronary ligation induced ventricular arrhythmia was measured as percent of final sinus complexes after dose mg/kg, iv=2; assay type: functional, Canis lupus familiaris, Cardiac ventricle
Canis familiaris [49] = experiment: Activity against harris coronary ligation induced ventricular arrhythmia was measured as percent of initial sinus complexes after dose mg/kg, iv=2; assay type: functional, Canis lupus familiaris, Cardiac ventricle

CC(C)N(CCC(C(N)=O)(c1ccccc1)c1ccccn1)C(C)C (configuration not stated) [DISOPYRAMIDE]
Duration (Canis familiaris [1]): 60 min and 180 min | FSC (Canis familiaris [2]): 100% | LD50 [3]: 60 mg/kg | SRR (Canis familiaris [4]): 100% | ISC (Canis familiaris [5]): 1% | FSC (Canis familiaris [6]): 100% | Duration (Canis familiaris [7]): 25 min | ISC (Canis familiaris [8]): 19%

COc1c(NC(=O)OC(C)C)c(OCCN2CCCCC2)c(OC)c2occc12
Duration (Canis familiaris [1]): 10 min | FSC (Canis familiaris [9]): 50% | LD50 [3]: 10 mg/kg | Duration (Canis familiaris [7]): >100 min | ISC (Canis familiaris [10]): 30% | SRR (Canis familiaris [11]): 100%

C=C[C@H]1CN2CC[C@H]1C[C@@H]2[C@@H](O)c1ccnc2ccc(OC)cc12 [QUINIDINE]
Duration (Canis familiaris [1]): >90 min and 120 min and 240 min | FSC (Canis familiaris [12]): 25% and 56% | ISC (Canis familiaris [13]): 5% | ISC (Canis familiaris [14]): 9% | LD50 [3]: 89 mg/kg | ISC (Canis familiaris [15]): 9% | SRR (Canis familiaris [16]): 50% | Duration (Canis familiaris [7]): 60 min | FSC (Canis familiaris [17]): 67%

CNC(=O)Nc1c(OCCN2CCCCC2)c(OC)c2occc2c1OC [MUROCAINIDE]
ISC (Canis familiaris [18]): 3% | SRR (Canis familiaris [19]): 100% | FSC (Canis familiaris [20]): 14% | ISC (Canis familiaris [21]): 5% | ISC (Canis familiaris [22]): 13% | FSC (Canis familiaris [23]): 85% | FSC (Canis familiaris [24]): 45% | ISC (Canis familiaris [25]): 1% | ISC (Canis familiaris [26]): 14% | FSC (Canis familiaris [27]): 90% | LD50 [3]: 50 mg/kg | FSC (Canis familiaris [28]): 98% | Duration (Canis familiaris [7]): >60 min

CNC(=O)Nc1c(OCCN2CCCC2)c(OC)c2occc2c1OC [CAROCAINIDE]
FSC (Canis familiaris [29]): 100% | SRR (Canis familiaris [19]): 100% | ISC (Canis familiaris [30]): 15% | ISC (Canis familiaris [31]): 33% | FSC (Canis familiaris [32]): 100% | FSC (Canis familiaris [27]): 95% | FSC (Canis familiaris [2]): 100% | LD50 [3]: 88 mg/kg | FSC (Canis familiaris [33]): 81% | ISC (Canis familiaris [34]): 19% and 12% | FSC (Canis familiaris [35]): 75% | Duration (Canis familiaris [7]): 69 min | ISC (Canis familiaris [8]): 18%

CNC(=O)Nc1c(OC)c2c(c(OC)c1OCCN1CCCCC1)OCC2
LD50 [3]: 180 mg/kg | SRR (Canis familiaris [36]): 100% | Duration (Canis familiaris [7]): <30 min

CNC(=O)Nc1c(OCCN2CCN(C)CC2)c(OC)c2occc2c1OC
Duration (Canis familiaris [1]): 30 min and <30 min | FSC (Canis familiaris [23]): 50% | ISC (Canis familiaris [37]): 18% | ISC (Canis familiaris [26]): 1% | LD50 [3]: 145 mg/kg | SRR (Canis familiaris [4]): 100% | FSC (Canis familiaris [38]): 98% | Duration (Canis familiaris [7]): 120 min

COc1c(NC(C)=O)c(OCCN2CCCCC2)c(OC)c2occc12
ISC (Canis familiaris [39]): inactive | LD50 [3]: 52 mg/kg | Duration (Canis familiaris [7]): >50 min | SRR (Canis familiaris [40]): 100%

COc1c(NC(C)=O)c(OCCN2CCN(C)CC2)c(OC)c2occc12
LD50 [41]: 200 mg/kg | SRR (Canis familiaris [16]): 66% | Duration (Canis familiaris [7]): <30 min

CNC(=O)Nc1c(OCCN(C)C)c(OC)c2occc2c1OC
FSC (Canis familiaris [42]): 20% | LD50 [3]: 100 mg/kg | Duration (Canis familiaris [7]): 30 min | SRR (Canis familiaris [11]): 100% | Duration (Canis familiaris [43]): 10 min | ISC (Canis familiaris [44]): 5%

CNC(=O)Nc1c(OCCN2CCCCC2)cc2occc2c1OC
LD50 [3]: 100 mg/kg | SRR (Canis familiaris [45]): 100%

CNC(=O)Nc1c(OCCN2CCC2)c(OC)c2occc2c1OC
SRR (Canis familiaris [19]): 100% | LD50 [46]: 1000 mg/kg | Duration (Canis familiaris [7]): 10 min

COc1c(NC(C)=O)c(OCCNC(C)C)c(OC)c2occc12
LD50 [3]: 88 mg/kg | SRR (Canis familiaris [47]): 33% | Duration (Canis familiaris [7]): <30 min

CCCN(CCC)CCOc1c(NC(=O)NC)c(OC)c2ccoc2c1OC
Duration (Canis familiaris [1]): 5 min | SRR (Canis familiaris [19]): 100% | FSC (Canis familiaris [48]): 37% | LD50 [3]: 52 mg/kg | ISC (Canis familiaris [49]): 30% | Duration (Canis familiaris [7]): 45 min
